Test results taken from US7888527B2 (University of Virginia Patent Foundation, priority 2004, dated 2011).
Entries after “also recorded” stand apart in the source; their conditions may differ.

Key:
[1] = biological target: T1, S1P2 receptor (Homo sapiens, UniProt O95136); test: [32P]S1P binding assay; conditions: concentrations up to 10 μM (data not shown)
T1 construct: expressed in transfected cells; host or cells: HEK293T, transient transfection; membranes
Protocol: [^32P]-S1P was prepared by incubating sphingosine and [γ-^32P]ATP with cell lysate from HEK293T cells transiently transfected with human sphingosine kinase type 2 DNA. The 200 μl reaction contained 0.025 mM sphingosine, 1 mCi [γ-^32P]ATP (7000 Ci/mmol) and kinase buffer (in mM: Mg(C2H3O2)2 (in 50 mM Tris, pH 7.5)/10, NaF/10, and semicarbizide/2). The reaction was initiated by the addition of 20 μg of cell lysate and incubated at 37° C. for at least 30 minutes. […] The organic layer was isolated and the extraction procedure repeated two additional times with the remaining aqueous fraction. The combined organic fractions were dried under a stream of nitrogen gas and resuspended in aqueous 0.1% fatty acid free BSA.
Bound ligand was separated from free ligand by rapid filtration and analyzed in a liquid scintillation counter.

[2] = tested on: LPA1-3 EDG-family receptors; test: Activity at LPA receptors; type: biochemical, human; conditions: concentrations up to 30 μM
Description: (§1) The appropriate receptor plasmid DNA (encoding human S1P1, human S1P2, human S1P3, human S1P4, human S1P5, human LPA1, human LPA2 or human LPA3 receptors) is mixed with equal amounts of expression plasmids encoding human Gi2α (for S1P3, a mutated (C352F) rat Gi2α is used), cow β1, and cow γ2 proteins, and these DNAs are used to transfect monolayers of HEK293T cells (where ‘T’ indicates expression of the SV-40 virus large T antigen) using the calcium phosphate precipitate method (7). After about 60 hours, cells are harvested, membranes prepared, aliquoted, and stored at −70° C. until use (8).
(§2) The [γ-^35S]GTP binding assay is performed as described previously (8). Membranes containing 1-5 μg of protein are incubated in 0.1 ml of binding buffer (in mM: HEPES/50, NaCl/100, MgCl2/10, pH 7.5) containing 5 μg of saponin, 10 μM GDP, 0.1 nM [γ-^35S]GTP (1200 Ci/mmol), and indicated lipid(s) for 30 min at 30° C. and collected using a Brandel Cell Harvester (Gaithersburg, Md.). Samples are then analyzed for bound radionuclide.

[3] = biological target: T2, human S1P1 receptor (Homo sapiens, UniProt P21453); test: [γ-35S]GTP binding assay, HEK293T membranes (agonism and Schild antagonism); type: biochemical; design: expressed in transfected cells; host or cells: HEK293T, transient transfection; membranes
Description: as §1, §2
Briefly, nonlinear analysis of the best-fit line generated by plotting the negative log of the EC50 values obtained from agonist dose-response curves, in the absence and presence of varying concentrations of antagonist, was plotted against the concentration of antagonist to give the Kb value.
Statistical Analysis. The EC50 and IC50 values for all dose response curves were determined by nonlinear regression analysis of all data using the Graphpad Prism© program. The error associated with the data collected is reported as the standard error of the mean (S.E.M).

[4] = biological target: T2, human S1P1 receptor; test: Cell migration assay, T24 cells transfected stably with human S1P1 receptor; type: cell-based; design: expressed in transfected cells
Protocol: […] monolayers are co-transfected with the human S1P1, S1P2, S1P3 receptor encoding DNAs and the pIRESpuro2 plasmid DNA (Clontech, San Jose, Calif.,) using either Lipofectamine 2000 (Invitrogen, Carlsbad, Calif.) or FuGENE 6 (Roche Applied Science, Indianapolis, Ind.). Clonal populations expressing the puromycin acetyltransferase gene are selected by addition of puromycin (Sigma-Aldrich, St. Louis, Mo.) to the culture media. T24 cells are grown in monolayers at 37° C. in a 5% CO2/95% air atmosphere in growth media consisting of: 95% DMEM/F-12 medium and 10% charcoal/dextran stripped FBS.
Cell migration assays are performed using modified Boyden chambers (tissue culture-treated, 24-mm diameter, 10-μm thickness, 8-μm pores, Transwell®; Costar Corp., Cambridge, Mass.) containing polycarbonate membranes that are coated on the underside with 0.1% gelatin. The underside of the polycarbonate membranes is rinsed once with migration media (DMEM/F12 without Phenol Red and 0.1% fatty acid free BSA) and then immersed in the lower chamber containing two milliliters of migration media. T24 cells transfected stably with human S1P1 receptor DNA were grown in DMEM/F12 media containing charcoal/dextran stripped FBS and 10 μg/ml puromycin to 100% confluence in 150×2.5 mm tissue culture plates and serum starved at least 12 hours. Serum-starved cells were removed from culture dishes with 10× Trypsin-EDTA (Hanks' balanced salt solution containing 5 mM EDTA and 25 mM HEPES, pH 7.2, and 0.1% trypsin; Invitrogen, San Diego, Calif.), suspended in migration buffer and collected by centrifugation at 130×g for 5 minutes. The supernatant fluid was removed by aspiration and cell pellet resuspended in migration media (10^6 cells/ml). […] The non-migrating cells in the upper chamber were removed by aspiration and the migratory cells attached to the bottom surface of the membrane were isolated by incubation in 10× Trypsin-EDTA for 1 min at room temperature and gently tapping the plate to dislodge cells from the membrane. The mass of migratory cells per membrane was evaluated by combining 100 μl of cell suspension with an equal volume of CyQuant dye solution (3.0 ml of 2× lysis buffer and 15 μl CyQuant dye), and the resulting fluorescence quantified using the FlexStation™ fluorimeter (Molecular Devices, Menlo Park, Calif.). Each determination represents the average of two individual migration chambers. […] The monolayer was washed three times with phosphate buffered saline and processed immediately for the cell migration assay, as described above.

T2 sequence (P21453 whole entry): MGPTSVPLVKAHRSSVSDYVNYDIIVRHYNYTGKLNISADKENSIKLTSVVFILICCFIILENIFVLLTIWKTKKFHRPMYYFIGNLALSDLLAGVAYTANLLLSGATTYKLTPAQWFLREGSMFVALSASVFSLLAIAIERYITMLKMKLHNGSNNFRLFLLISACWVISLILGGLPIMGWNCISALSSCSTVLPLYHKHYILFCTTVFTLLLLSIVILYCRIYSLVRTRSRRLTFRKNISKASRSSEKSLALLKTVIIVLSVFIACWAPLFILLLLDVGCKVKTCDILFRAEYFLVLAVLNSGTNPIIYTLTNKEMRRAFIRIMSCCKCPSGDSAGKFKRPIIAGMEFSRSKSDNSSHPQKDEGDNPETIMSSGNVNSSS
T1 sequence (O95136 whole entry): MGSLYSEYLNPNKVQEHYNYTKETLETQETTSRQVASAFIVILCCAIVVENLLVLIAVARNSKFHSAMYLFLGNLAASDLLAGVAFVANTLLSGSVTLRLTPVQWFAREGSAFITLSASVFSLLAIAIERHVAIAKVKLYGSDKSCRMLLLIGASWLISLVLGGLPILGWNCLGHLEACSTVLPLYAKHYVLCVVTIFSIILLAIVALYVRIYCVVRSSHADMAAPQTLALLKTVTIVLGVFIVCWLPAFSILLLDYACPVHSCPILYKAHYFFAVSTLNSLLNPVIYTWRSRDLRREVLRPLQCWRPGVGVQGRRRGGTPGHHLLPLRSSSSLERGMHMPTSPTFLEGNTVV

## CCCCCCCCc1cccc(NC(=O)[C@H](N)COP(=O)(O)O)c1 [VPC23019]
[1]
  Influence on binding of [32P]S1P to the S1P2 receptor: did not influence the binding
[2]
  Agonist activity at LPA1-3 receptors: neither agonist activity
[3]
  Agonist activity at the S1P1 receptor: lacked agonist activity
[3]; Schild analysis (Lew and Angus) of S1P curves in [γ-35S]GTP binding, ± S.E.M.
  pKb S1P1: 7.49±0.16
[3]; VPC23019 concentrations greater than 100 nM
  Inverse agonism profile at S1P1: a profile suggesting inverse agonism
[3]; [γ-35S]GTP binding, S1P with increasing VPC23019, Lew and Angus regression
  Antagonism of S1P at the S1P1 receptor: dose-dependent, parallel rightward shift; also recorded: competitive antagonist
[3]; read-out: pKb S1P1 (converted)
  Kb: 32.4 nM
[3]; relative to S1P Emax
  Agonist efficacy class S1P1: na (no agonist activity (<10% of S1P Emax))
[4]; 50 nM antagonist
  Blockade of VPC22277 (10 nM)-induced migration: Blockade
[4]; 10 μM VPC23019 pre-incubation 30 min, washed
  Reversibility of antagonism after washout, cell migration: recovered fully
[4]; 10, 100 and 1000 nM antagonist
  Blockade of VPC22277 (10 nM)-induced migration: blockade
[4]; VPC22277 10 nM, VPC23019 1 nM-1000 nM
  Migration of T24-S1P1 cells evoked by compound alone: no migration was evoked and not
